Test results from paper PMC12150604, “Exploring structure–activity relationships of pyrrolyl diketo acid derivatives as non-nucleoside inhibitors of terminal deoxynucleotidyl transferase enzyme” (Journal of Enzyme Inhibition and Medicinal Chemistry, 2025).
Read-outs that look alike come from different tables or passages of the source.

Key:
human DNA polymerase λ [1] = molecular target: T1, human DNA polymerase λ (Homo sapiens, UniProt Q9UGP5); experiment: Terminal transferase assay, DNA polymerase λ (TdT-like activity); type: biochemical; settings: for IC50: enzymatic assay, TdT-like activity of pol λ, read-out: ID50 pol λ (TdT)
T1 construct: Recombinant full-length human DNA polymerase λ and β were generated and purified as described; made in house
T1 sequence (Q9UGP5 1-575): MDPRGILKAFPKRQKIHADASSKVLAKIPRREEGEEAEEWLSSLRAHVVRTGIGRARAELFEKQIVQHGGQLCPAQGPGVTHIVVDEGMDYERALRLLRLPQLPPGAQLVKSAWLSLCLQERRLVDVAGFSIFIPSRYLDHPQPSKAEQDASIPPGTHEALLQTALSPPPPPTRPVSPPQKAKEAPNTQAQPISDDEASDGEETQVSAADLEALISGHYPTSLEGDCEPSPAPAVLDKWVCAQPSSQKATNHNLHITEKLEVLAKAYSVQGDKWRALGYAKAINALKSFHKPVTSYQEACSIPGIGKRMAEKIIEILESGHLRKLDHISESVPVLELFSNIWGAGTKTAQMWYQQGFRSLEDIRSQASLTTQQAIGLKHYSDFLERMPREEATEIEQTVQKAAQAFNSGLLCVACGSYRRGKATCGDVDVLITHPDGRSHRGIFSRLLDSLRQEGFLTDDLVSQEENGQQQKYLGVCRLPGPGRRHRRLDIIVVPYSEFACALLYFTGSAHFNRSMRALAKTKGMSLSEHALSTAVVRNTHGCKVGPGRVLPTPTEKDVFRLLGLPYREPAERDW
Procedure: (§1) Recombinant full-length human DNA polymerase λ and β were generated and purified as described. After purification, the protein was >90% homogeneous, as judged by sodium dodecyl sulphate (SDS)−polyacrylamide gel electrophoresis (PAGE) and Coomassie staining. TdT was from Trevigen (Gaithersburg, MD).
(§2) Terminal Transferase Assay. DNA polymerase λ and TdT terminal transferase activities were assayed in a final volume of 25 μL containing 50 mM Tris-HCl (pH 7.0), 0.25 mg/mL BSA, 1 mM DTT, 0.2 μM ss 30mer (AAC)10 DNA oligonucleotide, 25 μM [3H]dNTPs (10 Ci/mmol) and 0.5 mM MnCl2 or 5 mM MgCl2 used as cofactors. Terminal transferase activity was monitored in the presence of 10% DMSO or in the presence of increasing amounts of inhibitors dissolved in DMSO. All reactions were incubated for 10 min at 37 °C and the DNA precipitated with 10% trichloroacetic acid. Insoluble radioactive material was determined by scintillation counting using Trilux beta-counter (PerkinElmer) as described.
(§3) Dose − response curves were generated by computer fitting of the data to the equation E(%) = Emax/(1 + I/ID50) where E(%) is the fraction of enzyme’s activity measured in the presence of the inhibitor, Emax is the activity in the absence of the inhibitor, I is the inhibitor concentration, and ID50 is the inhibitor concentration at which E(%) = 0.5 Emax. ID50 values were generated using GraphPad Prism 6.

human DNA polymerase λ [2] = molecular target: T1, human DNA polymerase λ; experiment: Polymerase assay, DNA polymerase λ (template-dependent); type: biochemical; settings: for pol λ (Pol) Residual activity (%) Mg2+ / pol λ (Pol) Residual activity (%) Mn2+: after treatment 100 mM; for IC50: enzymatic assay, template-dependent polymerase activity, read-out: ID50 pol λ (Pol); for residual polymerase activities: fix concentration of 100 µM, pol λ
Procedure: as §1
(§4) Polymerase Assay: Activity of DNA polymerase λ and β were assessed using poly(dA)/oligo(dT)10:1 substrate in a final volume of 25 μL containing 50 mM Tris-HCl (pH 7.0), 0.25 mg/mL BSA, 1 mM, DTT, 0.2 μM poly(dA)/oligo(dT)10:1 (3′-OH ends), 50 nM DNA polymerase λ or β, 5 μM [3H]-2′-deoxythymidine 5′-triphosphate (dTTP) (5 Ci/mmol), and 0.5 mM MnCl2 or 5 mM MgCl2 used as cofactors. The polymerase activity was monitored in the presence of 10% DMSO or in the presence of increasing amounts of inhibitors dissolved in DMSO. All reactions were incubated for 15 min at 37 °C and the DNA precipitated with 10% trichloroacetic acid. Insoluble radioactive material was determined by scintillation counting using Trilux beta-counter (PerkinElmer) as described.
as §3

human DNA polymerase β [3] = molecular target: T2, human DNA polymerase β (Homo sapiens, UniProt P06746); experiment: Polymerase assay, DNA polymerase β; type: biochemical; settings: for pol β Residual activity (%) Mg2+ / pol β Residual activity (%) Mn2+: after treatment 100 mM; for IC50: enzymatic assay, read-out: ID50 pol β; for residual polymerase activities: fix concentration of 100 µM, pol β
T2 construct: Recombinant full-length human DNA polymerase λ and β were generated and purified as described; made in house
Procedure: as §1, §4, §3

human TdT = molecular target: T3, human TdT (Homo sapiens, UniProt P04053); experiment: Terminal transferase assay, TdT; type: biochemical; settings: human TdT
T3 construct: purchased Trevigen (Gaithersburg, MD)
T3 sequence (P04053 whole entry): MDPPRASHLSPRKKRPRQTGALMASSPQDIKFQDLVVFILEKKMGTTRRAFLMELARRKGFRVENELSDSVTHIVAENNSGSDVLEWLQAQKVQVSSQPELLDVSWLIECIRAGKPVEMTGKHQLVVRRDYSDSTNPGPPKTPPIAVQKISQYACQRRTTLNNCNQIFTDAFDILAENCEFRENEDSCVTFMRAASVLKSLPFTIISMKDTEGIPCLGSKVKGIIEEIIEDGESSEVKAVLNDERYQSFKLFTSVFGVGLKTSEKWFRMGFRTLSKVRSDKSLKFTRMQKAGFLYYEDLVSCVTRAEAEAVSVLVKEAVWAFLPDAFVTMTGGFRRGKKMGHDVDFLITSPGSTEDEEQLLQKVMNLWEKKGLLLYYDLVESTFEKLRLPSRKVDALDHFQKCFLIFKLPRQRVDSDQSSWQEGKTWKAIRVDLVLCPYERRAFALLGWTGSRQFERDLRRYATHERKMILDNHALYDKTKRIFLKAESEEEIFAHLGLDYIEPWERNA
Procedure: as §1, §2, §3

[4] = system: leukaemia cells overexpressing TdT; parameters: method as in PMID 22390204; settings: read-out: cytotoxicity activity IC50; cited from earlier work
human DNA polymerase λ [5] = molecular target: T1, human DNA polymerase λ; parameters: method as in PMID 19329428; settings: enzymatic assay; cited from earlier work
human DNA polymerase λ [6] = molecular target: T1, human DNA polymerase λ; parameters: method as in PMID 19329428; settings: enzymatic assay; cited from earlier work; remark: listed apart in the source
human DNA polymerase β [7] = molecular target: T2, human DNA polymerase β; parameters: method as in PMID 19329428; settings: enzymatic assay; cited from earlier work
[8] = Mn2+ as cofactor, read-out: ID50 (µM) Mn2+
[9] = Mg2+ as cofactor, read-out: ID50 (µM) Mg2+

| Compound | IC50 (human TdT; [8]) | IC50 (human DNA polymerase λ [1]) | IC50 (human DNA polymerase λ [2]) | residual polymerase activities (human DNA polymerase λ [2]) | IC50 (human DNA polymerase β [3]) | residual polymerase activities (human DNA polymerase β [3]) | IC50 (human TdT; [9]) | ID50 pol λ (TdT) (human DNA polymerase λ [5]) | ID50 pol λ (Pol) (human DNA polymerase λ [6]) | ID50 pol β (human DNA polymerase β [7]) | further results |
| --- | --- | --- | --- | --- | --- | --- | --- | --- | --- | --- | --- |
| C#Cc1cn([C@H]2C[C@H](O)[C@@H](COP(=O)(O)OP(=O)(O)OP(=O)(O)O)O2)c2ccc([N+](=O)[O-])cc12 [3-eth-5-NITP, 3-ethynyl-5-nitroindolyl-2′-deoxynucleoside triphosphate] |  |  |  |  |  |  |  |  |  |  | IC50 [4]: 3.9 µM |
| O=C(/C=C(\O)C(=O)O)/C=C/c1cc(C(=O)c2ccccc2)cn1Cc1ccccc1 [Compound 1] | 16 ± 0.5 µM |  |  |  |  |  |  | 20 ± 1 µM | > 40 µM | > 40 µM |  |
| O=C(/C=C(\O)C(=O)O)/C=C/c1cc(C(=O)c2ccccc2)cn1Cc1ccc(F)cc1 [Compound 2] | 9.5 ± 0.1 µM |  |  |  |  |  |  | > 40 µM | > 40 µM | > 40 µM |  |
| O=C(/C=C(\O)C(=O)O)/C=C/c1cc(C(=O)c2cccc(F)c2)c[nH]1 [Compound 3] | 0.78 ± 0.04 µM |  |  |  |  |  |  | 35 ± 1 µM | > 40 µM | > 40 µM |  |
| O=C(/C=C(\O)C(=O)O)/C=C/c1cc(C(=O)c2ccc(F)cc2)c[nH]1 [Compound 4] | 0.58 ± 0.03 µM |  |  |  |  |  |  | 40 ± 1 µM | > 40 µM | > 40 µM |  |
| CCOC(=O)/C(O)=C/C(=O)/C=C/c1cc(C(=O)c2ccccc2)cn1Cc1ccc(Cl)cc1 [Compound 5h] | > 50 µM | > 100 µM | 4.08 ± 0.4 µM | less than 10% | 12.4 ± 0.3 µM | less than 10% | 17.51 ± 0.12 µM |  |  |  |  |
| CCOC(=O)/C(O)=C/C(=O)/C=C/c1cc(C(=O)c2ccccc2)cn1Cc1ccc(OC)cc1 [Compound 5i] | > 50 µM | > 100 µM | 4.07 ± 0.3 µM | less than 10% | 7.94 ± 0.1 µM | less than 10% | 10.5 ± 0.2 µM |  |  |  |  |

More lines, main results first:

| IC50 (human TdT; [8]) | IC50 (human DNA polymerase λ [1]) | IC50 (human DNA polymerase λ [2]) | residual polymerase activities (human DNA polymerase λ [2]) | IC50 (human DNA polymerase β [3]) | residual polymerase activities (human DNA polymerase β [3]) | IC50 (human TdT; [9]) | Compound | ID50 pol λ (TdT) (human DNA polymerase λ [5]) | ID50 pol λ (Pol) (human DNA polymerase λ [6]) | ID50 pol β (human DNA polymerase β [7]) | further results |
| --- | --- | --- | --- | --- | --- | --- | --- | --- | --- | --- | --- |
| 10.10 µM |  |  |  |  |  |  | 4-(1-(4-fluorobenzyl)-4-phenyl-1H-pyrrol-3-yl)-2,4-dioxobutanoic acid [Compound 12b] |  |  |  | pol λ (TdT) Residual activity (%) Mn2+ (human DNA polymerase λ [1]; after treatment 100 mM, Mn2+): 100%; pol λ (Pol) Residual activity (%) Mg2+ (human DNA polymerase λ [2]): 74.0%; pol λ (Pol) Residual activity (%) Mn2+ (human DNA polymerase λ [2]): 79.0%; pol β Residual activity (%) Mg2+ (human DNA polymerase β [3]): 51.7%; pol β Residual activity (%) Mn2+ (human DNA polymerase β [3]): 82.5%; ID50 (µM) Mn2+ (human TdT; Mn2+ as cofactor): 10.10 ± 4.1 µM |
|  | > 100 µM | 4.06 ± 0.2 µM | less than 10% | 20 ± 0.4 µM | less than 10% | 5.1 ± 0.12 µM | O=C(/C=C(\O)C(=O)O)/C=C/c1cc(C(=O)c2ccccc2)cn1Cc1ccc(Cl)cc1 [Compound 6h] |  |  |  |  |
| > 50 µM | > 100 µM | 4.06 ± 0.1 µM | less than 10% | 14.7 ± 0.8 µM | less than 10% | 2.7 ± 0.32 µM | COc1ccc(Cn2cc(C(=O)c3ccccc3)cc2/C=C/C(=O)/C=C(\O)C(=O)O)cc1 [Compound 6i] |  |  |  |  |
| >50 µM |  |  |  |  |  |  | Ethyl 4-(1-(4-fluorobenzyl)-4-phenyl-1H-pyrrol-3-yl)-2,4-dioxobutanoate [Compound 11b] |  |  |  | pol λ (Pol) Residual activity (%) Mg2+ (human DNA polymerase λ [2]): 70.0%; pol λ (Pol) Residual activity (%) Mn2+ (human DNA polymerase λ [2]): 94.0%; pol β Residual activity (%) Mg2+ (human DNA polymerase β [3]): 60.5%; pol β Residual activity (%) Mn2+ (human DNA polymerase β [3]): 88% |
